According to paper PMC12429564:
One block for each molecule: values may come before it.

What was measured:
[1] = system: hh’ (DNA, duplex) CATTTAGGACCAACACAA/TTGTGTTGGTCCTAAATG; assay: fluorescence quenching titration, Hill fit; conditions: 50 mM NaCl, 10 mM KCl, 5 mM MgCl2; Tris-HCl pH 7.4; 1.5 μM DOX titrated with nucleic acid; apparent; Hill n = 0.96 ± 0.03
[2] = system: GR20 (DNA, aptamer) ACGCACCATTTGTTTAATATGTTTTTTAATTCCCCTTGTGGTGTGT; assay: fluorescence quenching titration, Hill fit; conditions: 50 mM NaCl, 10 mM KCl, 5 mM MgCl2; Tris-HCl pH 7.4; 1.5 μM DOX titrated with nucleic acid; apparent; Hill n = 1.13 ± 0.03
[3] = system: U31 (DNA, aptamer) ATCCAGAGTGACGCAGCATTTGTTTAATATGTTTTTTAATTCCCCTTGTGGTGTGTTGTGGACACGGTGGCTTAGT; assay: fluorescence quenching titration, Hill fit; conditions: 50 mM NaCl, 10 mM KCl, 5 mM MgCl2; Tris-HCl pH 7.4; 1.5 μM DOX titrated with nucleic acid; apparent; Hill n = 0.95 ± 0.04
[4] = system: ACCO GR20hh’ (DNA, aptamer) ACGCACCATTTGTTTAATATGTTTTTTAATTCCCCTTGTGGTGTGTTTCATTTAGGACCAACACAA/TTGTGTTGGTCCTAAATG; assay: fluorescence quenching titration, Hill fit; conditions: 50 mM NaCl, 10 mM KCl, 5 mM MgCl2; Tris-HCl pH 7.4; 1.5 μM DOX titrated with nucleic acid; apparent; Hill n = 1.58 ± 0.09
[5] = target: T1, EGFR* (recombinant extracellular domain of human EGFR) (human, UniProt P00533 25-645); assay: BLI; kon 3.7e5 M-1 s-1; koff 40e-4 s-1; BLI buffer and temperature not in the material; aptamers folded at 1 uM in PBS with 5 mM MgCl2 (95 C 5 min, slow cooling); ACCO assembled in PBS + 5 mM MgCl2 or Tris-HCl pH 7.4, 50 mM NaCl, 10 mM KCl, 5 mM MgCl2; conditions: protein: recombinant; 18 bp duplex of S5 with 3' end of S3; GR20 part imperfect hairpin (predicted)
[6] = target: T1, EGFR* (recombinant extracellular domain …); assay: BLI; kon 2.0e5 M-1 s-1; koff 29e-4 s-1; possibly from the authors' earlier work [36], not marked as cited in table; BLI buffer and temperature not in the material; aptamers folded at 1 uM in PBS with 5 mM MgCl2 (95 C 5 min, slow cooling); ACCO assembled in PBS + 5 mM MgCl2 or Tris-HCl pH 7.4, 50 mM NaCl, 10 mM KCl, 5 mM MgCl2; conditions: protein: recombinant; imperfect hairpins (predicted)
[7] = target: T1, EGFR* (recombinant extracellular domain …); assay: BLI; kon 4.3e5 M-1 s-1; koff 61e-4 s-1; BLI buffer and temperature not in the material; aptamers folded at 1 uM in PBS with 5 mM MgCl2 (95 C 5 min, slow cooling); ACCO assembled in PBS + 5 mM MgCl2 or Tris-HCl pH 7.4, 50 mM NaCl, 10 mM KCl, 5 mM MgCl2; conditions: protein: recombinant; imperfect hairpin (predicted)

aKd [1]: 124 ± 3 nM
aKd [2]: 90 ± 3 nM
aKd [3]: 47 ± 3 nM
aKd [4]: 26 ± 1 nM
Molecule: COc1cccc2c1C(=O)c1c(O)c3c(c(O)c1C2=O)C[C@@](O)(C(=O)CO)C[C@@H]3O[C@H]1C[C@H](N)[C@H](O)[C@H](C)O1

B1: ACCO GR20hh' (mixed)
DNA 1: ACGCACCATTTGTTTAATATGTTTTTTAATTCCCCTTGTGGTGTGTTTCATTTAGGACCAACACAA
DNA 2: TTGTGTTGGTCCTAAATG
Kd [5]: 10.8 ± 1.4 nM

B2: U31 (ssDNA)
DNA: ATCCAGAGTGACGCAGCATTTGTTTAATATGTTTTTTAATTCCCCTTGTGGTGTGTTGTGGACACGGTGGCTTAGT
Kd [6]: 15 ± 1.7 nM

Molecule: ACGCACCATTTGTTTAATATGTTTTTTAATTCCCCTTGTGGTGTGT (ssDNA) [GR20]
Kd [7]: 14.2 ± 0.5 nM
